# Patent US20080280879A1, “SUBSTITUTED HETEROCYCLIC DERIVATIVES AND THEIR PHARMACEUTICAL USE AND COMPOSITIONS” (priority 2007, published 2008)
# Legend:
# Format in all cases: cell-based, Staphylococcus aureus
# Staph aureus 1095 MRSA = test: MIC, microtiter broth dilution (CLSI M7-A7), Assay 1, Table 12 column A, no serum; conditions: Assay 1, no serum; for MIC: Staphylococcus aureus, MRSA
# Outline: (§1)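 MIC read as lowest drug level giving no macroscopically visible growth, μg/ml. Method: CLSI M7-A7 microtiter broth dilution, M100-S16 interpretation. Serum arm: inoculum in Mueller-Hinton Broth + 50% pooled inactivated human serum. Multiple runs → geometric mean.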
# Staph aureus 1146 [1] = test: MIC, microtiter broth dilution (CLSI M7-A7), Assay 1, Table 12 column B, no serum; conditions: for MIC: Staphylococcus aureus, 1146, Staph aureus 1146, Assay 1, no serum; for MIC, column B: Staph aureus 1146, Assay 1, no serum
# Outline: as §1
# Staph aureus 1146 [2] = test: MIC in Mueller-Hinton Broth with 50% pooled inactivated human serum, Assay 1, Table 12; conditions: for MIC: Staphylococcus aureus, 1146, Staph aureus 1146, Assay 1, 50% human serum, read-out: MIC, column C; for MIC, column C: Staph aureus 1146, Assay 1, 50% human serum
# Outline: as §1
# Staph aureus 2811 = test: MIC, microtiter broth dilution (CLSI M7-A7), Assay 1, Table 12 column D, no serum; conditions: for MIC: Staphylococcus aureus, 2811, Staph aureus 2811, Assay 1, no serum; for MIC, column D: Staph aureus 2811, Assay 1, no serum
# Outline: as §1
# Staph aureus 2812 = test: MIC, microtiter broth dilution (CLSI M7-A7), Assay 1, Table 12 column E, no serum; conditions: for MIC: Staphylococcus aureus, 2812, Staph aureus 2812, Assay 1, no serum; for MIC, column E: Staph aureus 2812, Assay 1, no serum
# Outline: as §1
MIC (Staph aureus 1095 MRSA),MIC (Staph aureus 1146 [1]),MIC (Staph aureus 1146 [2]),MIC (Staph aureus 2811),MIC (Staph aureus 2812),"MIC, column C (Staph aureus 1146 [2])","MIC, column A (Staph aureus 1095 MRSA)","MIC, column B (Staph aureus 1146 [1])","MIC, column D (Staph aureus 2811)","MIC, column E (Staph aureus 2812)",Structure (SMILES)
0.125 µg/mL,< 0.0625 µg/mL,4 µg/mL,< 0.0625 µg/mL,< 0.0625 µg/mL,,,,,,"COc1ccc2ncc(Cl)c(C(O)CCC3(C(=O)O)CCN(C4CC(c5c(F)cccc5F)C4)C3)c2c1 (stereo not drawn) [Example 176, 3-[3-(3-chloro-6-methoxyquinolin-4-yl)-3-hydroxypropyl]-1-[3-(2,6-difluorophenyl)cyclobutyl] pyrrolidine-3-carboxylic acid]"
,,,,,32.0 µg/mL,8.00 µg/mL,2.00 µg/mL,2.00 µg/mL,4.00 µg/mL,"COc1ccc2nccc(C(O)CC[C@@H]3CCN(CC4CC(c5ccccc5)C4)C[C@@H]3C(=O)O)c2c1 (stereo partly drawn) [Example 178, (3R,4R)-4-[3-hydroxy-3-(6-methoxyquinolin-4-yl)propyl]-1-[(3-phenylcyclobutyl)methyl]piperidine-3-carboxylic acid]"
2 µg/mL,1 µg/mL,32 µg/mL,1 µg/mL,1 µg/mL,,,,,,"COc1ccc2nc(C)cc(C(O)CC[C@@H]3CCN(C4CC(c5c(F)cccc5F)C4)C[C@@H]3C(=O)O)c2c1 (stereo partly drawn) [Example 179, (3R,4R)-1-[3-(2,6-difluorophenyl)cyclobutyl]-4-[3-hydroxy-3-(6-methoxy-2-methylquinolin-4-yl)propyl] piperidine-3-carboxylic acid]"
,,,,,16.0 µg/mL,<0.0625 µg/mL,<0.0625 µg/mL,<0.0625 µg/mL,<0.0625 µg/mL,"COc1ccc2ncc(F)c(CCCC3(C(=O)O)CCN(C4CC(c5c(F)cccc5F)C4)C3)c2c1 (stereo not drawn) [Example 180, 1-[3-(2,6-difluorophenyl)cyclobutyl]-3-[3-(3-fluoro-6-methoxyquinolin-4-yl)propyl]pyrrolidine-3-carboxylic acid]"
,,,,,16.0 µg/mL,<0.0625 µg/mL,<0.0625 µg/mL,<0.0625 µg/mL,<0.0625 µg/mL,"COc1ccc2ncc(F)c(CCCC3(C(=O)O)CCN(C4CC(c5c(F)cccc5F)C4)C3)c2c1 (stereo not drawn) [Example 181, 1-[3-(2,6-difluorophenyl)cyclobutyl]-3-[3-(3-fluoro-6-methoxyquinolin-4-yl)propyl]pyrrolidine-3-carboxylic acid]"
< 0.0625 µg/mL,< 0.0625 µg/mL,,< 0.0625 µg/mL,< 0.0625 µg/mL,1.00 µg/mL,,,,,"COc1ccc2ncc(F)c(C(O)CC[C@@H]3CCN(C4CC(c5c(F)cccc5F)C4)C[C@@H]3C(=O)O)c2n1 (stereo partly drawn) [Example 182, (3R,4R)-1-[3-(2,6-difluorophenyl)cyclobutyl]-4-[3-(3-fluoro-6-methoxy-1,5-naphthyridin-4-yl)-3-hydroxypropyl]piperidine-3-carboxylic acid]"
2 µg/mL,0.25 µg/mL,8 µg/mL,0.25 µg/mL,0.5 µg/mL,,,,,,"COc1ccc2nccc(C(O)CC[C@@H]3CCN(C4CCC(c5cc(F)ccc5F)C4)C[C@@H]3C(=O)O)c2c1 (stereo partly drawn) [Example 183, (3R,4R)-1-[3-(2,5-difluorophenyl)cyclopentyl]-4-[3-hydroxy-3-(6-methoxyquinolin-4-yl)propyl]piperidine-3-carboxylic acid]"
0.25 µg/mL,< 0.0625 µg/mL,8 µg/mL,< 0.0625 µg/mL,< 0.0625 µg/mL,,,,,,"COc1ccc2ncc(Cl)c(C(O)CCC3(C(=O)O)CCN(C4CC(c5cc(F)ccc5F)C4)C3)c2c1 (stereo not drawn) [Example 184, 3-[3-(3-chloro-6-methoxyquinolin-4-yl)-3-hydroxypropyl]-1-[3-(2,5-difluorophenyl)cyclobutyl] pyrrolidine-3-carboxylic acid]"
8 µg/mL,2 µg/mL,> 64 µg/mL,8 µg/mL,4 µg/mL,,,,,,"COc1ccc2nccc(C(O)CC[C@@H]3CCN(C4CCN(c5ccccc5)C4)C[C@@H]3C(=O)O)c2c1 (stereo partly drawn) [Example 185, (3R,4R)-4-[3-hydroxy-3-(6-methoxyquinolin4-yl)propyl]-1-(1-phenylpyrrolidin-3-yl)piperidine-3-carboxylic acid]"

# The remaining lines, values behind:
Structure (SMILES),MIC (Staph aureus 1095 MRSA),MIC (Staph aureus 1146 [1]),MIC (Staph aureus 1146 [2]),MIC (Staph aureus 2811),MIC (Staph aureus 2812),"MIC, column C (Staph aureus 1146 [2])","MIC, column A (Staph aureus 1095 MRSA)","MIC, column B (Staph aureus 1146 [1])","MIC, column D (Staph aureus 2811)","MIC, column E (Staph aureus 2812)"
"COc1ccc2nccc(C(O)CC[C@@H]3CCN(C4CC(c5nc(C(C)(C)C)no5)C4)C[C@@H]3C(=O)O)c2c1 (stereo partly drawn) [Example 164, (3R,4R)-1-[3-(3-tert-butyl-1,2,4-oxadiazol-5-yl)cyclobutyl]-4-[3-hydroxy-3-(6-methoxyquinolin-4-yl)propyl]piperidine-3-carboxylic acid]",> 64 µg/mL,64 µg/mL,> 64 µg/mL,64 µg/mL,64 µg/mL,,,,,
"COc1ccc2nccc(C(O)CC[C@@H]3CCN(C4CC(c5nc(C6CC6)no5)C4)C[C@@H]3C(=O)O)c2c1 (stereo partly drawn) [Example 165, (3R,4R)-1-[3-(3-cyclopropyl-1,2,4-oxadiazol-5-yl)cyclobutyl]-4-[3-hydroxy-3-(6-methoxyquinolin-4-yl)propyl]piperidine-3-carboxylic acid]",> 64 µg/mL,32 µg/mL,> 64 µg/mL,32 µg/mL,64 µg/mL,,,,,
"COc1ccc2nccc(C(O)CC[C@@H]3CCN(C4CC(c5nc(C(C)C)no5)C4)C[C@@H]3C(=O)O)c2c1 (stereo partly drawn) [Example 166, (3R,4R)-4-[3-hydroxy-3-(6-methoxyquinolin-4-yl)propyl]-1-[3-(3-isopropyl-1,2,4-oxadiazol-5-yl)cyclobutyl]piperidine-3-carboxylic acid]",> 64 µg/mL,> 64 µg/mL,> 64 µg/mL,> 64 µg/mL,> 64 µg/mL,,,,,
"CCCc1noc(C2CC(N3CC[C@@H](CCC(O)c4ccnc5ccc(OC)cc45)[C@@H](C(=O)O)C3)C2)n1 (stereo partly drawn) [Example 167, (3R,4R)-4-[3-hydroxy-3-(6-methoxyquinolin-4-yl)propyl]-1-[3-(3-propyl-1,2,4-oxadiazol-5-yl)cyclobutyl]piperidine-3-carboxylic acid]",> 64 µg/mL,> 64 µg/mL,> 64 µg/mL,> 64 µg/mL,> 64 µg/mL,,,,,
"CCOCCc1noc(C2CC(N3CC[C@@H](CCC(O)c4ccnc5ccc(OC)cc45)[C@@H](C(=O)O)C3)C2)n1 (stereo partly drawn) [Example 168, (3R,4R)-1-{3-[3-(2-ethoxyethyl)-1,2,4-oxadiazol-5-yl]cyclobutyl}-4-[3-hydroxy-3-(6-methoxyquinolin-4-yl)propyl]piperidine-3-carboxylic acid]",> 64 µg/mL,> 64 µg/mL,> 64 µg/mL,> 64 µg/mL,> 64 µg/mL,,,,,
"COCc1noc(C2CC(N3CC[C@@H](CCC(O)c4ccnc5ccc(OC)cc45)[C@@H](C(=O)O)C3)C2)n1 (stereo partly drawn) [Example 169, (3R,4R)-4-[3-hydroxy-3-(6-methoxyquinolin-4-yl)propyl]-1-{3-[3-(methoxymethyl)-1,2,4-oxadiazol-5-yl]cyclobutyl}piperidine-3-carboxylic acid]",> 64 µg/mL,> 64 µg/mL,> 64 µg/mL,> 64 µg/mL,> 64 µg/mL,,,,,
"COc1ccc2nccc(C(O)CC[C@@H]3CCN(C4CC(c5nc(CC6CC6)no5)C4)C[C@@H]3C(=O)O)c2c1 (stereo partly drawn) [Example 170, (3R,4R)-1-{3-[3-(cyclopropylmethyl)-1,2,4-oxadiazol-5-yl]cyclobutyl}-4-[3-hydroxy-3-(6-methoxyquinolin-4-yl)propyl]piperidine-3-carboxylic acid]",> 64 µg/mL,> 64 µg/mL,> 64 µg/mL,> 64 µg/mL,> 64 µg/mL,,,,,
"COc1ccc2nccc(C(O)CC[C@@H]3CCN(C4CC(c5cc(C)on5)C4)C[C@@H]3C(=O)O)c2c1 (stereo partly drawn) [Example 171, (3R,4R)-4-[3-Hydroxy-3-(6-methoxy-quinolin-4-yl)-propyl}-1-[3-(5-methyl-isoxazol-3-yl)-cyclobutyl]-piperidine-3-carboxylic acid]",16 µg/mL,8 µg/mL,16 µg/mL,8 µg/mL,8 µg/mL,,,,,
"COc1ccc(F)c(C2CC(N3CC[C@@H](CC[C@H](O)c4ccnc5ccc(OC)cc45)[C@@H](C(=O)O)C3)C2)c1 (stereo partly drawn) [Example 172, (3R,4R)-1-[3-(2-fluoro-5-methoxyphenyl)cyclobutyl]-4-[(3S)-3-hydroxy-3-(6-methoxyquinolin-4-yl)propyl]piperidine-3-carboxylic acid]",4 µg/mL,2 µg/mL,32 µg/mL,1 µg/mL,2 µg/mL,,,,,
"COc1ccc2ncc(F)c(CCCC3(C(=O)O)CCN(C4CC(c5ccccc5)C4)C3)c2c1 (stereo not drawn) [Example 173, 3-[3-(3-fluoro-6-methoxyquinolin-4-yl)propyl]-1-(3-phenylcyclobutyl)pyrrolidine-3-carboxylic acid]",< 0.0625 µg/mL,< 0.0625 µg/mL,8 µg/mL,< 0.0625 µg/mL,< 0.0625 µg/mL,,,,,
"COc1ccc2ncc(F)c(CCCC3(C(=O)O)CCN(C4CC(c5c(F)cccc5F)C4)C3)c2c1 (stereo not drawn) [Example 174, 1-[3-(2,6-difluorophenyl)cyclobutyl]-3-[3-(3-fluoro-6-methoxyquinolin-4-yl)propyl]pyrrolidine-3-carboxylic acid]",< 0.0625 µg/mL,< 0.0625 µg/mL,,< 0.0625 µg/mL,< 0.0625 µg/mL,4.00 µg/mL,,,,
"COc1ccc2ncc(Cl)c(C(O)CCC3(C(=O)O)CCN(C4CC(c5ccccc5)C4)C3)c2c1 (stereo not drawn) [Example 175, 3-[3-(3-chloro-6-methoxyquinolin-4-yl)-3-hydroxypropyl]-1-(3-phenylcyclobutyl)pyrrolidine-3-carboxylic acid]",0.5 µg/mL,< 0.0625 µg/mL,4 µg/mL,< 0.0625 µg/mL,< 0.0625 µg/mL,,,,,
